Assay results as given in ChEMBL document CHEMBL1134866, “Design, synthesis, and biological evaluation of novel, centrally-acting thyrotropin-releasing hormone analogues” (2002).

Test system: Mus musculus
Assay: Compound was intravenously injected into Swiss Webstar mice tail vein, the sleeping time was recorded as the time elapsed from the loss of righting reflex
Type: functional

Compound | Sleeping time
NC(=O)C1=CN(C[C@H](NC(=O)[C@@H]2CCC(=O)N2)C(=O)N2CCC[C@H]2C(N)=O)C=CC1 | 19.3 min
NC(=O)C1=CN(CCC(NC(=O)[C@@H]2CCC(=O)N2)C(=O)N2CCC[C@H]2C(N)=O)C=CC1 (some centres undefined) | ~45 min
NC(=O)C1=CN(CCCCC(NC(=O)[C@@H]2CCC(=O)N2)C(=O)N2CCC[C@H]2C(N)=O)C=CC1 (some centres undefined) | ~47 min
NC(=O)C1=CN(CCC[C@H](NC(=O)[C@@H]2CCC(=O)N2)C(=O)N2CCC[C@H]2C(N)=O)C=CC1 | ~59 min
